Experimental data reported in article PMC5740381 (Antimicrobial Agents and Chemotherapy, 2017).
Like-named read-outs stand apart in the source and are kept apart here.

Tests used:
[1] = test system: HCV genotype 1a replicon cells; assay: Drug-resistant colony selection in replicon cells; assay type: cell-based, Hepatitis C virus
Excerpt: (§1) . After approximately 3 weeks of treatment, the surviving replicon colonies in one plate for each selection condition were stained with crystal violet and counted, whereas approximately 20 to 30 colonies in a replicate plate or most of the colonies, if less than 20 colonies survived the selection, were picked and further expanded for genotyping. The expanded colonies were lysed in CellsDirect lysis buffer (Invitrogen, MA), and the NS3-coding region from each colony was amplified by reverse transcription-PCR and sequenced. For genotype 1a, 1b, 2a, and 5a colonies, the full-length NS3 sequence was determined, whereas for colonies of the chimeric replicon containing the N-terminal region of NS3 from genotype 2b, 3a, 4a, or 6a, the sequence encoding the NS3 N-terminal region was determined. We defined a substitution in a replicon to be an amino acid difference in a sequence from a posttreatment sample relative to the sequence of the corresponding untreated sample. For resistance selection studies, NS3 substitutions detected at the following amino acid positions associated with resistance to the HCV PI class in >2 colonies in each replicon selection are reported: 36, 43, 54, 55, 56, 80, 122, 155, 156, and 168. In addition, substitutions detected at other amino acid positions in the NS3 protease domain in >2 colonies in each replicon selection are also reported.
(§2) […]. The drug-resistant colonies were fixed and stained with crystal violet, and the number of colonies was determined.

[2] = test system: HCV genotype 1b replicon cells; assay: Drug-resistant colony selection in replicon cells; assay type: cell-based, Hepatitis C virus
Excerpt: as §1, §2

HCV genotype 1 = settings: 3-day monotherapy, daily doses of 100 to 700 mg, genotype 1 treatment-naive patients; cited from earlier work
[3] = test system: HCV replicons with genotype 2a patient proteases; assay: Transient replicon assay with proteases from HCV-infected patients; assay type: cell-based; settings: Hepatitis C virus, subtype 2a, no polymorphism, 4 samples
Excerpt: […]. Each of the NS3 gene sequences from genotypes 1, 2, and 4, with the exception of two genotype 2b sequences, was derived from serum or plasma from an HCV-infected patient by bulk PCR amplification, producing a population of sequences representing the viral quasispecies. Two genotype 2b sequences were synthesized based on the consensus sequences of the respective samples. One genotype 3a sequence was synthesized based on a consensus sequence from the sequences available in the Los Alamos HCV sequence database, and another genotype 3a sequence was a clonal sequence derived from a patient sample. The genotype 5a sequence (strain SA13) was synthesized based on the published sequence of the HCV isolate ([48]).
A genotype 2a JFH-1 replicon shuttle vector was used to generate transient replicons containing NS3 from clinical samples from genotype 2a- and genotype 2b-infected patients. The region encoding the first 227 amino acids of NS3 from samples from genotype 2a- and 2b-infected patients was used to replace the corresponding region in the genotype 2a JFH-1 replicon shuttle vector. The genotype 2a JFH-1 replicon shuttle vector was also used to generate a transient replicon containing a region encoding full-length NS3 through the first 39 amino acids of NS5B from genotype 5a (strain SA13). […]

Cathepsin B = target: T1, Cathepsin B (Homo sapiens, UniProt P07858); assay: Human protease biochemical assay; settings: read-out: Mean IC50 ± SD
T1 construct: purchased Sigma-Aldrich
Protocol: […]; catalog number M9771; Sigma-Aldrich), and 0.05 U/ml elastase (excitation wavelength = 370 nm, emission wavelength = 460 nm); (ii) for chymase, 0.4 M Tris, pH 8.0, 1.8 M NaCl, 9% dimethyl sulfoxide, 0.4 mM substrate (Suc-AAF-AMC; catalog number S8758; Sigma-Aldrich), and 0.063 U/ml chymase (excitation wavelength = 370 nm, emission wavelength = 460 nm); (iii) for cathepsin B, 50 mM MES (morpholineethanesulfonic acid), pH 6.0, 50 mM NaCl, 2 mM EDTA, 0.1% Triton X-100, 0.4 mM substrate (Z-RR-AMC; catalog number C5429; Sigma-Aldrich), and 1.7 μg/ml cathepsin B (excitation wavelength = 370 nm, emission wavelength = 460 nm); (iv and v) for chymotrypsin types II and VII, 50 mM Tris, pH 8, 10 mM CaCl2, 0.1% Triton X-100, 0.25 mM substrate (Suc-AAF-AMC; catalog number S8758; Sigma-Aldrich), and 0.5 nM chymotrypsin type II or type VII (excitation wavelength = 370 nm, emission wavelength = 460 nm); (vi) for kallikrein, 50 mM Tris, pH 7.4, 0.5 mM EDTA, 0.05% Tween 20, 150 mM NaCl, 0.35 mM substrate (H-Pro-Phe-Arg-AMC; catalog number I-1295; Bachem), and 2 nM kallikrein (excitation wavelength = 355 nm, emission wavelength = 460 nm); and (vii) for urokinase, 50 mM Tris, pH 7.4, 0.15 M NaCl, 0.5% Pluronic F-68, 0.2 mM substrate (pyro-Glu Arg-p-nitroanilide-HCl; catalog number S-2444; Diapharma), and 3 nM urokinase (absorbance at 405 nm).

[4] = test system: HCV subgenomic stable replicon GT2b; assay: Stable HCV replicon luciferase assay in Huh-7 cells; assay type: cell-based; settings: Hepatitis C virus, 0% human plasma, read-out: Mean EC50 ± SD
Excerpt: Five of these nine cell lines have been described previously, including those transfected with genotypes 1a H77, 1b Con1, 3a, 4a, and 6a ([28]). […] The genotype 2b and 6e NS3 sequences were each synthetically constructed based on a consensus sequence derived from the alignment of 15 genotype 2b and 4 genotype 6e sequences, respectively. All replicon constructs were bicistronic subgenomic replicons similar to those described by Bartenschlager and coworkers, and the replicon cell lines were generated by introducing these constructs into cells of an Huh-7 human hepatoma-derived cell line ([50]). The inhibitory effect of the PIs on HCV replication in replicon cells was determined in Dulbecco's modified Eagle medium containing 5% fetal bovine serum with or without 40% human plasma (Bioreclamation, Westbury, NY). The EC50s were determined using nonlinear regression curve fitting as described previously ([33]).

| Compound | Colony survival ([1]; 10× EC50, about 3 weeks) [%] | Colony survival ([1]; 100× EC50) [%] | Colony survival ([2]; 10× EC50, about 3 weeks) [%] | Colony survival ([2]; 100× EC50) [%] | Mean maximal decrease in HCV plasma viral load from baseline (HCV genotype 1) [log10 IU/ml] | EC50 ([3]; read-out: EC50 Median) [nM] | EC50 ([3]; read-out: EC50 Range) [nM] | IC50 (Cathepsin B) [nM] | EC50 [4] [nM] |
| --- | --- | --- | --- | --- | --- | --- | --- | --- | --- |
| CC(C)(C)[C@@H]1NC(=O)O[C@@H]2CCC[C@H]2OC/C=C/C(F)(F)c2nc3ccccc3nc2O[C@@H]2C[C@@H](C(=O)N[C@]3(C(=O)NS(=O)(=O)C4(C)CC4)C[C@H]3C(F)F)N(C2)C1=O [Glecaprevir, (3aR,7S,10S,12R,21E,24aR)-7-tert-butyl-N-[(1R,2R)-2-(difluoromethyl)-1-{[(1-methylcyclopropyl)sulfonyl]carbamoyl}cyclopropyl]-20,20-difluoro-5,8-dioxo-2,3,3a,5,6,7,8,11,12,20,23,24a-dodecahydro-1H,10H-9,12-methanocyclopenta[18,19][1,10,17,3,6]trioxadiazacyclononadecino[11,12-b]quinoxaline-10-carboxamide] | 0.043 | 0.0029 | 0.047 | 0.03 | 3.8 to 4.3 | 1.6 | 0.66 to 1.9 | > 200000 | 4.6 ± 1.2 |
| Cc1cnc(C(=O)N[C@H]2CCCCC/C=C\[C@@H]3C[C@@]3(C(=O)NS(=O)(=O)C3CC3)NC(=O)[C@@H]3C[C@@H](Oc4nc5ccccc5c5ccccc45)CN3C2=O)cn1 [Paritaprevir] | – | – | – | – | – | – | – | – | 107 ± 17 |
